What was measured:
[1] = biological target: T1, rhGBA (recombinant human GBA, Imiglucerase) (Homo sapiens, UniProt P04062, R534H); assay: Fluorogenic substrate (4-MU-β-D-glucoside) enzymatic assay, rhGBA; type: biochemical; details: for IC50: incubation time 30 min, enzymatic assay, ±SD, n=3, read-out: In vitro apparent IC50 rhGBA
T1 construct: purchased Sanofi Genzyme (Cambridge, MA, USA)
T1 sequence (P04062 40-536 R534H): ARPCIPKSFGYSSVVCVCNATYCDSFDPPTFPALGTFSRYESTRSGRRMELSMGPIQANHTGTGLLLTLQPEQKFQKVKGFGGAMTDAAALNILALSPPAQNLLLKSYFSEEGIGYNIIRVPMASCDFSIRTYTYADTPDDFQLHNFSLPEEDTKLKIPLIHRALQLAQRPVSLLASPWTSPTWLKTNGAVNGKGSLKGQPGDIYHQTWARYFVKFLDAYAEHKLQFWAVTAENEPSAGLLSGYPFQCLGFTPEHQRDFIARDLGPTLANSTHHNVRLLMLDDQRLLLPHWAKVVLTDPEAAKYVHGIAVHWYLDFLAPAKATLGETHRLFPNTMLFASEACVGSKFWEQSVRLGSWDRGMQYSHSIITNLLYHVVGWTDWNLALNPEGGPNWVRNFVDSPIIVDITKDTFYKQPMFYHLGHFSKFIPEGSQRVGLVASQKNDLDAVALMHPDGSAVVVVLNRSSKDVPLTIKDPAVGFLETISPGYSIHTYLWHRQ
Description: Using fluorogenic substrate‐based assays, we determined apparent IC50 values at 30 min incubation time of the xylo‐cyclophellitols in rhGBA, and GBA2 and GBA3 lysates of cells expressing only each of the enzymes specifically.
Enzyme activity assays: All assays were performed with lysates of HEK293T cells or zebrafish larvae in 96‐well plates at 37 °C. Samples were diluted with McIlvaine buffer (150 mM citric acid‐Na2HPO4) to a final volume of 25 μL, at pH appropriate for each enzyme. Assays were performed by incubating the samples with 100 μL 4‐methylumbelliferyl‐β‐D‐glucoside substrates diluted in McIlvaine buffer (with 0.1 % (w/v) bovine serum albumin (BSA)) for a period of 30 min or 3 h. The substrate mixtures used for each enzyme were as follows: GBA, 3.75 mM 4‐MU‐β‐D‐glucopyranoside (Glycosynth, Warrington Cheshire, UK) at pH 5.2, supplemented with 0.2 % (w/v) sodium taurocholate, 0.1 % (v/v) Triton X‐100, 0.1 % (w/v) bovine serum albumin (BSA); GBA2, 3.75 mM 4 MU‐β‐D‐glucopyranoside at pH 5.8; GBA3, 3.75 mM 4‐MU‐β‐D‐glucopyranoside at pH 6.0. After stopping the enzyme reaction with 200 μL 1 M NaOH‐glycine (pH 10.3), 4‐methylumbelliferone fluorescence was measured with a fluorimeter LS55 (Perkin Elmer, Waltham, MA, USA) with λEX 366 nm and λEM 445 nm. Enzyme activities were determined by subtraction of background (measured for incubations without enzyme). IC50 values were determined exactly as earlier described.[36]
The IC50 values were determined using a fluorogenic enzymatic assay. For GBA, 3.16 ng (53 fmol) of rhGBA, (recombinant human GBA, Imiglucerase) obtained from Sanofi Genzyme (Cambridge, MA, USA), was prepared in 12.5 μL McIlvaine buffer (150 mM, pH 5.2) supplemented with 0.1 % (v/v) Triton X‐100, and 0.2 % (w/v) sodium taurocholate, 0.1 % (w/v) bovine serum albumin (BSA). The enzyme was incubated with 12.5 μL of inhibitors diluted in McIlvaine buffer (150 mM, pH 5.2) at 37 °C for 30 min. In the case of GBA2 or GBA3, lysates of GBA/GBA2 KO HEK293T cells overexpressing GBA2 or GBA3, respectively where used. The enzymatic activity of GBA, GBA2 and GBA3 were measured with 4MU‐β‐D‐glucoside substrate as described above.

GBA3 = biological target: T2, GBA3 (Homo sapiens, UniProt Q9H227); assay: Competitive ABPP (cABPP) with ABP 10 in HEK293T cell lysates, GBA3; type: biochemical; details: cell lysate, 30 min incubation
T2 construct: expressed in transfected cells; host or cells: HEK293T (GBA/GBA2 KO background for the fluorogenic assay; endogenous-GBA background with GBA2 and GBA3 overexpressed for ABPP and intact-cell assays)
T2 sequence (Q9H227 1-469): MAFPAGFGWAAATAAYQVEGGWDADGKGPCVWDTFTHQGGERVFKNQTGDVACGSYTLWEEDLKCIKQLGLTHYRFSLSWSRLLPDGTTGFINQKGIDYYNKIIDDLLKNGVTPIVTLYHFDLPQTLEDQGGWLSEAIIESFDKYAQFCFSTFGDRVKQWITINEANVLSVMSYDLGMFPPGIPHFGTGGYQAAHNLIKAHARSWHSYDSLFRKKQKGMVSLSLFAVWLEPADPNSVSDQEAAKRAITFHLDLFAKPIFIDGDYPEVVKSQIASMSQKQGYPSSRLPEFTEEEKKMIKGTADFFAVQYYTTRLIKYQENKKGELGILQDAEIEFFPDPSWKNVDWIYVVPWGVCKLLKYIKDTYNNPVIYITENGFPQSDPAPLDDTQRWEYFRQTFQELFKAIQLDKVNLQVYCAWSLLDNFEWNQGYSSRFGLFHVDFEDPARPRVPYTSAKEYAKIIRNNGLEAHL
Description: In the first instance, the inhibitory potency of 1 and 2 for GBA, GBA2, and GBA3 was assessed by competitive activity‐based protein profiling (cABPP). For this, we first generated HEK293T cells that contain endogenous GBA and overexpress human GBA2 and GBA3.
Figure 3 Selectivity of compounds visualized by competitive ABPP labeling of β‐D‐glucosidase. Lysates of HEK293T cells expressing human GBA, GBA2 and GBA3 were incubated with compounds 1–5 at indicated concentrations for 30 min, following by cABPP with ABP 10.
ABP labeling procedure: Glycosidases were labeled with excess fluorescent ABPs at optimum conditions. ABP labeling was performed at 37 °C for 30 min for all materials (if not otherwise stated), in a total sample volume of 20–40 μL and 0.5–1 % DMSO concentration. GBA was labeled with 200 nM ABP 9 (pH 5.2, 0.1 % (v/v) Triton‐100, 0.2 % (w/v) sodium taurocholate), or labeled together with GBA2 using 200 nM β‐D‐glucose‐configured aziridine ABP 10 at pH 5.8, or labeling together with GBA2 and GBA3 using 200 nM β‐D‐glucose‐configured aziridine ABP 10 at pH 6.0. After ABP incubation, proteins were denatured by boiling the samples with 5× Laemmli buffer (50 % (v/v) 1 M Tris‐HCl, pH 6.8, 50 % (v/v) 100 % glycerol, 10 % (w/v) DTT, 10 % (w/v) SDS, 0.01 % (w/v) bromophenol blue) for 5 min at 98 °C, and separated by electrophoresis on 10 % (w/v) SDS‐PAGE gels running continuously at 90 V. Wet slab‐gels were scanned on fluorescence using the Typhoon FLA 9500 (GE Healthcare) at λEX 473 nm and λEM≥510 nm for green fluorescent ABP 8; and at λEX 635 nm and λEM≥665 nm for ABP 6, 9 and 10. ABP‐emitted fluorescence was quantified using ImageQuant software (GE Healthcare, Chicago, IL, USA) and curve‐fitted using Prism 8.0 (GraphPad Software). After fluorescence scanning, SDS‐PAGE gels were stained for total protein with Coomassie G250 and scanned on a ChemiDoc MP imager (Bio‐Rad, Hercules, CA, USA).[25]

SMILES	IC50 [1] [nM]	competition of ABP 10 labeling of GBA3 (GBA3)	potency against GBA compared to unsubstituted xylo-cyclophellitol aziridine 2 ([1]; in vitro, 30 min) [fold]
OC[C@@H]1[C@@H](O)[C@H](O)[C@@H](O)[C@@H]2N[C@H]12 [compound 4, cyclophellitol aziridine, reference compound]	341 ± 5.82	with less potency	–
[N-]=[N+]=NCCCCCCCCN1[C@H]2[C@H](O)[C@@H](O)[C@H](O)C[C@H]21 (stereo partly drawn) [compound 5]	1.2 ± 0.06	greatly enhances inhibitory potency	600
O[C@@H]1[C@@H](O)[C@H](O)C[C@H]2N[C@@H]12 [compound 2, β‐D‐xylo‐Cyclophellitol aziridine]	719 ± 196	–	–
CN1/C(=C/C=C/C=C/C2=[N+](CCCCCC(=O)NCc3cn(C[C@@H]4[C@@H](O)[C@H](O)[C@@H](O)[C@@H]5O[C@H]45)nn3)c3ccccc3C2(C)C)C(C)(C)c2ccccc21 [ABP 9, reference compound]	45.2 ± 4.54	–	–
O[C@@H]1[C@@H](O)[C@H](O)C[C@H]2O[C@@H]12 [compound 1, xylo‐cyclophellitol]	2670 ± 94.5	but not that of GBA2 or GBA3	–
OC[C@@H]1[C@@H](O)[C@H](O)[C@@H](O)[C@@H]2O[C@H]12 [compound 3, cyclophellitol]	400 ± 12.4	with less potency	–
CN1/C(=C/C=C/C=C/C2=[N+](CCCCCC(=O)NCc3cn(CCCCCCCCN4[C@H]5[C@H](O)[C@@H](O)[C@H](O)C[C@H]54)nn3)c3ccccc3C2(C)C)C(C)(C)c2ccccc21 (stereo partly drawn) [ABP 6]	6.44 ± 0.49	–	–

Source: article PMC8596838, “Xylose‐Configured Cyclophellitols as Selective Inhibitors for Glucocerebrosidase” (Chembiochem, 2021)
